In general, EC50 refers to the midpoint of the concentration-response curve. Broadly, the Cmax is the highest concentration seen after dosing.

Our source for the EC50 and Cmax values is US10654834B2 (Venenum Biodesign, LLC, priority 2016, dated 2020).

One series deals with T1, mouse TGR5 receptor (Mus musculus, UniProt Q80SS6).
T1 construct: host or cells: HEK293-EBNA (293 c18, ATCC CRL10852)
T1 sequence (Q80SS6 1-329): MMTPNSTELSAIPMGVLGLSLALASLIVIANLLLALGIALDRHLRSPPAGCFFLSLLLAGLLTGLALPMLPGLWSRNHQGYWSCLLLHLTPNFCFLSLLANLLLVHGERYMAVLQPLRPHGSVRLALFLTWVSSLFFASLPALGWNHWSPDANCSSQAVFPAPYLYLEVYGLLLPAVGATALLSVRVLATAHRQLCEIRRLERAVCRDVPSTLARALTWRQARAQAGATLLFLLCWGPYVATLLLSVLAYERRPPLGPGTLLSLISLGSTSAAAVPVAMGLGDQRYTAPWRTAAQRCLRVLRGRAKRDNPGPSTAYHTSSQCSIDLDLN
Description: Mouse TGR5 HTRF cAMP production assay (HEK293-EBNA cells, Cisbio cAMP HiRange kit). In kind it is cell-based. As to conditions: HEK293-EBNA cells overexpressing mouse TGR5, HTRF cAMP assay. In short, it runs like this:
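HEK293-EBNA cells stably expressing mouse TGR5 (episomal vector) were suspended in serum-free DMEM with 500 μM IBMX and exposed to 12-point half-log compound dilutions for 1 h at room temperature. cAMP was detected by HTRF (d2-cAMP/anti-cAMP cryptate, 1 h, room temperature), giving EC50 from duplicates.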
In general terms: Time-resolved FRET reads energy transfer from a long-lived donor to a nearby acceptor.

Another series addresses T2, human TGR5 receptor (Homo sapiens, UniProt Q8TDU6).
T2 construct: host or cells: CHO-K1 (hTGR5-CHO)
T2 sequence (Q8TDU6 1-330): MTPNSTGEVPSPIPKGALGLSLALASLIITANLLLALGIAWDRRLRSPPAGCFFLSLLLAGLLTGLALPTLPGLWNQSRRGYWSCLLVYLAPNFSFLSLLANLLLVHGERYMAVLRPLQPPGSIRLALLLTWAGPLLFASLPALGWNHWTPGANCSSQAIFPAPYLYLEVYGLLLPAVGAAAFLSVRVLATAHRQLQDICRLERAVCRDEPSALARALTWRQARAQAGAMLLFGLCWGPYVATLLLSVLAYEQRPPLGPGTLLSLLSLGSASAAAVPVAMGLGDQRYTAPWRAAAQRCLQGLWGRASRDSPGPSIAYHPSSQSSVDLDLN
Description: Human TGR5 cAMP production assay (hTGR5-CHO cells, DiscoveRx cAMP XS+ kit). In kind it is cell-based. As to conditions: luminescent cAMP assay, read-out: Human TGR5 Lum. cAMP Activity (EC50). In short, it runs like this: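 CHO-K1 cells stably expressing hTGR5, in PBS with IBMX and cAMP antibody, treated with half-log compound dilutions for 1 h at room temperature. cAMP measured by enzyme-fragment complementation luminescence after overnight detection; EC50 values reported.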

A short description of series [1]: Pharmacokinetic profile in mice after oral gavage. In kind it is in vivo, mouse. As to conditions: mouse; fasted male Hilltop mice, 10 mg/kg oral gavage, plasma; read-out: Cmax. Here is the method: Pharmacokinetic Profile in Mice
In this series of studies, the pharmacokinetic profile characteristics of compounds of the present invention were evaluated. The plasma concentration levels of the compounds were monitored in the blood stream (i.e., plasma) after oral gavage using Cmax, and area under the curve (AUC).
8 week old male Hilltop mice were fasted overnight. Animals were randomized into groups (n=9) by body weight. Mice were dosed with 10 mg/kg compound (in 20% PEG400/80% 0.5% carboxymethylcellulose (medium viscosity)+0.25% Tween-80) at a volume of […] through oral gavage. Blood was collected via orbital bleeding at 0, 0.25, 0.5, 1, 2, and 4 h post-dose, with no one mouse having more than 3 blood draws. Blood was collected in EDTA coated tubes. Samples were stored at −20° C. until analysis.
Quantitation of compound levels in plasma was accomplished by LC-MS/MS analysis. Standard curve and quality control samples were prepared in male CD-1 mouse plasma containing EDTA K^2+ as an anticoagulant at final concentrations ranging from 500 to 0.1 ng/mL. The plasma samples, calibration curve standards, and quality control samples were prepared in an identical method in a 96-well deep plate (1 mL) with a quenching solution (1:1 mixed acetonitrile:methanol containing the internal standard Reserpine @ 400 ng/mL). Low volume samples were supplemented with CD-1 mouse plasma. The plate was mixed on multi-tube vortexer for 1 min and centrifuged at 4000 rpm for 30 min at 4° C. (Sorvall® Super T21) before LC-MS/MS analysis. LC conditions were developed and optimized based on each compound as needed. The outlet of the column was coupled to AB Sciex 4000 QTrap Mass Spectrometer (AB Sciex, Brugg Switzerland). Detection was carried out using multiple reaction monitoring mode with positive-ion detection focusing. The pharmacokinetic parameters were derived from the plasma-time data and calculated using the standard non-compartmental method with WinNonlin (Pharsight, Mountain View, Calif.) or PK Solver (Comp. Meth. Prog. Biomed. (2010), 99, 306-314).
Values reported are the mean plasma concentration of three mice. […]

With `N#Cc1ccc(CCNC(=O)[C@@H]2CCCN2c2cc(N3CCC(OCC#CCO)CC3)nc(C(F)(F)F)n2)cc1` [Compound 26], the EC50 at mouse TGR5 receptor and at human TGR5 receptor was under 0.1 µM throughout. The Cmax in series [1] amounted to 0.055 µg/mL.
As to `N#Cc1ccc(CCNC(=O)[C@@H]2CCCN2c2cc(N3CCC(CCCC(=O)N[C@H](CCCNC(=N)N)C(=O)O)CC3)nc(C(F)(F)F)n2)cc1` [Compound 73, (R)-2-(4-(1-(6-((S)-2-((4-cyanophenethyl)carbamoyl)pyrrolidin-1-yl)-2-(trifluoromethyl)pyrimidin-4-yl)piperidin-4-yl)butanamido)-5-guanidinopentanoic acid], the EC50 at mouse TGR5 receptor and at human TGR5 receptor was under 0.1 µM throughout. Also, in series [1], the maximum concentration (Cmax) came out at 0.0028 µg/mL.
As to `N=C(N)NCCC[C@H](NC(=O)CCCC1CCN(c2cc(N3CCC[C@H]3C(=O)NCCc3ccc(C(F)(F)F)cc3)nc(C(F)(F)F)n2)CC1)C(=O)O` [Compound 74, (S)-5-guanidino-2-(4-(1-(2-(trifluoromethyl)-6-((S)-2-((4-(trifluoromethyl)phenethyl)carbamoyl)pyrrolidin-1-yl)pyrimidin-4-yl)piperidin-4-yl)butanamido)pentanoic acid], the half-maximal effective concentration (EC50) on mouse TGR5 receptor and on human TGR5 receptor was under 0.1 µM each time. For the same compound, the Cmax in series [1] came to 0.0036 µg/mL.
On to `N#Cc1ccc(CCNC(=O)[C@@H]2CCCN2c2cc(N3CCC(CCCC(=O)N[C@H](CC(=O)O)C(=O)O)CC3)nc(C(F)(F)F)n2)cc1` [Compound 75, (R)-2-(4-(1-(6-((S)-2-((4-cyanophenethyl)carbamoyl)pyrrolidin-1-yl)-2-(trifluoromethyl)pyrimidin-4-yl)piperidin-4-yl)butanamido)succinic acid], for which the concentration giving a half-maximal response (EC50) on mouse TGR5 receptor and at human TGR5 receptor was under 0.1 µM in each case. The Cmax in series [1] turned out to be 0.022 µg/mL.
Turning to `N#Cc1ccc(CCNC(=O)[C@@H]2CCCN2c2cc(N3CCC(CCNC(=O)NCS(=O)(=O)O)CC3)nc(C(F)(F)F)n2)cc1` [Compound 79, (S)-(3-(2-(1-(6-(2-((4-cyanophenethyl)carbamoyl)pyrrolidin-1-yl)-2-(trifluoromethyl)pyrimidin-4-yl)piperidin-4-yl)ethyl)ureido)methanesulfonic acid], the EC50 on mouse TGR5 receptor and on human TGR5 receptor was under 0.1 µM throughout. Moreover, the Cmax in series [1] is 0.015 µg/mL.
Regarding `N#Cc1ccc(CCNC(=O)[C@@H]2CCCN2c2cc(N3CCC(CCNC(=O)N[C@@H](CCCNC(=N)N)C(=O)O)CC3)nc(C(F)(F)F)n2)cc1` [Compound 83, (S)-2-(3-(2-(1-(6-((S)-2-((4-cyanophenethyl)carbamoyl)pyrrolidin-1-yl)-2-(trifluoromethyl)pyrimidin-4-yl)piperidin-4-yl)ethyl)ureido)-5-guanidinopentanoic acid], the EC50 on mouse TGR5 receptor and on human TGR5 receptor was under 0.1 µM throughout. Further, the Cmax in series [1] was found to be 0.0025 µg/mL.
With `O=C(NCCCC1CCN(c2cc(N3CCC[C@H]3C(=O)NCCc3ccc(C(F)(F)F)cc3)nc(C(F)(F)F)n2)CC1)NCCS(=O)(=O)O` [Compound 87, (S)-2-(3-(3-(1-(2-(trifluoromethyl)-6-(2-((4-(trifluoromethyl)phenethyl)-carbamoyl)-pyrrolidin-1-yl)pyrimidin-4-yl)piperidin-4-yl)propyl)ureido)-ethanesulfonic acid], the EC50 on mouse TGR5 receptor and on human TGR5 receptor was under 0.1 µM each time. For the same compound, in series [1], the Cmax stood at 0.035 µg/mL.
Turning to `N#Cc1ccc(CCNC(=O)[C@@H]2CCCN2c2cc(N3CCC(COCC(=O)NCCS(=O)(=O)O)CC3)nc(C(F)(F)F)n2)cc1` [Compound 89, (S)-2-(2-((1-(6-(2-((4-cyanophenethyl)carbamoyl)pyrrolidin-1-yl)-2-(trifluoromethyl)pyrimidin-4-yl)piperidin-4-yl)methoxy)acetamido)-ethanesulfonic acid], the EC50 on mouse TGR5 receptor and at human TGR5 receptor was under 0.1 µM throughout. The Cmax in series [1] was 0.0021 µg/mL.
As to `O=C(CCCC1CCN(c2cc(N3CCC[C@H]3C(=O)NCCc3ccc(C(F)(F)F)cc3)nc(C(F)(F)F)n2)CC1)NCCNS(=O)(=O)c1ccc(C(=O)O)cc1` [Compound 94, (S)-4-(N-(2-(4-(1-(2-(trifluoromethyl)-6-(2-((4-(trifluoromethyl)phenethyl)-carbamoyl)-pyrrolidin-1-yl)pyrimidin-4-yl)piperidin-4-yl)butanamido)ethyl)-sulfamoyl)benzoic acid], the half-maximal effective concentration (EC50) on mouse TGR5 receptor and at human TGR5 receptor was under 0.1 µM each time. The maximum concentration (Cmax) in series [1] was 0.026 µg/mL.
Regarding `O=C(CCCC1CCN(c2cc(N3CCC[C@H]3C(=O)NCCc3ccc(C(F)(F)F)cc3)nc(C(F)(F)F)n2)CC1)NCCNc1ncnc2[nH]cnc12` [Compound 95, (S)-1-(6-(4-(4-((2-((9H-purin-6-yl)amino)ethyl)amino)-4-oxobutyl)piperidin-1-yl)-2-(trifluoromethyl)pyrimidin-4-yl)-N-(4-(trifluoromethyl)phenethyl)pyrrolidine-2-carboxamide], the EC50 at mouse TGR5 receptor and at human TGR5 receptor was under 0.1 µM each time. The maximum concentration (Cmax) in series [1] came out at 0.002 µg/mL.
As for `N#Cc1ccc(CCNC(=O)[C@@H]2CCCN2c2cc(N3CCC(CCCC(=O)NCCNc4ncc(C(=O)O)cn4)CC3)nc(C(F)(F)F)n2)cc1` [Compound 98, (S)-2-((2-(4-(1-(6-(2-((4-cyanophenethyl)carbamoyl)pyrrolidin-1-yl)-2-(trifluoromethyl)pyrimidin-4-yl)piperidin-4-yl)butanamido)ethyl)-amino)pyrimidine-5-carboxylic acid], the concentration giving a half-maximal response (EC50) at mouse TGR5 receptor and at human TGR5 receptor was under 0.1 µM in each case. Further, the Cmax in series [1] was 0.012 µg/mL.
In the case of `C[N+](C)(C)CCC[C@H](NC(=O)CCCC1CCN(c2cc(N3CCC[C@H]3C(=O)NCCc3ccc(C#N)cc3)nc(C(F)(F)F)n2)CC1)C(=O)O` [Compound 105, (S)-4-carboxy-4-(4-(1-(6-((S)-2-((4-cyanophenethyl)carbamoyl)pyrrolidin-1-yl)-2-(trifluoromethyl)pyrimidin-4-yl)piperidin-4-yl)butanamido)-N,N,N-trimethylbutan-1-aminium], the concentration giving a half-maximal response (EC50) at mouse TGR5 receptor and on human TGR5 receptor was under 0.1 µM throughout. Also, the maximum concentration (Cmax) in series [1] turned out to be 0.051 µg/mL.
For `O=C(CCCC1CCN(c2cc(N3CCC[C@H]3C(=O)NCCc3ccc(C(F)(F)F)cc3)nc(C(F)(F)F)n2)CC1)NCCNc1cc(N(CCO)CCO)ncn1` [Compound 111], the concentration for a half-maximal effect (EC50) on mouse TGR5 receptor and at human TGR5 receptor was under 0.1 µM each time. Moreover, in series [1], the Cmax worked out at 0.0053 µg/mL.
Regarding `O=C(O)CCNC(=O)NCCC1CCN(c2cc(N3CCC[C@H]3C(=O)NCCc3ccc(-c4ccccn4)cc3)nc(C(F)(F)F)n2)CC1` [Compound 378, (S)-3-(3-(2-(1-(6-(2-((4-(pyridin-2-yl)phenethyl)carbamoyl)pyrrolidin-1-yl)-2-(trifluoromethyl)pyrimidin-4-yl)piperidin-4-yl)ethyl)ureido)propanoic acid], the 50% effective concentration (EC50) on mouse TGR5 receptor and at human TGR5 receptor was 1 to 30 µM throughout.
